Measurements published in patent US20080234368A9, “Therapeutic compositions and methods of use” (Trustees of Dartmouth College, priority 1998, published 2008).

Key:
[1] = test system: NO production in primary mouse macrophages; assay: NO production induced by LPS and IFN-γ in primary mouse macrophages (FIG. 7); type: cell-based
[2] = test system: LCDB acute myelogenous leukemia cell line; assay: Monocytic differentiation, α-naphthyl acetate esterase staining; type: cell-based, human
Description: CDDO induces monocytic differentiation in the poorly differentiated LCDB acute myelogenous leukemia cell line, derived from a chemotherapy-resistant patient at the NCI Pediatric Oncology Branch. FIG. 11 illustrates LCDB cells seeded in RPMI 1640/2% FBS, either alone (11A), with 2.5 ng/ml TGF-β1 (11B), with 10^−8 M CDDO (11C), or with both TGF-β1 and CDDO (11D). After 48 h, cytospin slide preparations were made and stained for α-naphthyl acetate esterase activity (kit from Sigma). PC12 cells were cultured for 5 days in gridded dishes in DMEM/10% FBS and 5% horse serum (Smith et al., 1997), either alone (11E), with 100 ng/ml 7S NGF (11F), with 10^−6 M CDDO (11G), or with both NGF and CDDO (11H). […] Methods for quantitative image analysis of size of cells and neurites have been described (De 1a Torre et al., 1997). Control cells in FIG. 11E are approximately 10 μm in diameter. 3T3-L1 cells were grown to confluency in DMEM/5% calf serum, and then treated once with CDDO in DMEM/10% FBS (FIG. 12A) or with CDDO and/or LG100268 in DMEM/10% FBS (FIG. 12B). Every two days thereafter, medium was changed to DMEM/10% FBS, without added CDD0 or LG100268. Cells were harvested on day 8 (FIG. 12A) or day 6 (FIG. 12B), and GPDH was measured in lysates, using a standard assay for consumption of NADH at 340 nm (Wise and Green, 1979).

[3] = test system: NRP-152 non-malignant prostate epithelium cells; assay: Suppression of thymidine incorporation, dose-response (FIG. 13); type: cell-based, rat; settings: NRP-152, 72 h; oleanolic acid statement at concentrations of 1 μM or less
Description: Inhibitors of cell proliferation are known to be useful chemopreventive and chemotherapeutic agents. CDDO was tested against a wide variety of cells derived from highly aggressive leukemias and carcinomas, as well as from non-neoplastic tissues. NRP-152 cells were grown as described in Danielpour et al., 1994. MCF-7 cells were grown in phenol red-free RPMI 1640/10% charcoal-stripped FBS with added 17-β-estradiol (10 μM). Triterpenoids were added at the time of plating, and 72 h later ^3H-thymidine (1 μCi/well) was added for the final 2 h of incubation. Incorporation of thymidine was measured after cells were precipitated with TCA (10%), washed, and solubilized. The symbols used in FIG. 13 are CDDO, ▪; TP-82, ◯; and oleanolic acid; ●.

[4] = test system: IFN-γ-induced NO production in mouse macrophages; assay: Inhibition of IFN-γ induced NO production in mouse macrophages; type: cell-based; settings: read-out: IC50, inhibition of IFN-γ induced NO production
Description: The inhibitory activities of these compounds and dexamethasone on IFN-γ induced NO production in mouse macrophages is shown below in Table 1. The following procedure for the assay ws used. Macrophages were harvested from female mice injected intraperitoneally four days previously with 4% thioglycollate. These cells were seeded in 96-well tissue culture plates and incubated with 4 ng/mL IFN-γ in the presence or absence of inhibitory test compounds. After 48 hours NO production (measured as nitrite by the Griess reaction) was determined. Full details of the assay are given in Ding et al., 1990; Bogdan et al., 1992.

[5] = test system: THP-1 monocytic leukemia cells; assay: Inhibition of cell proliferation (3H-thymidine incorporation); type: cell-based, human; settings: 3 or 4 days, 3H-thymidine 12 h
Description: (§1) All cells were obtained from ATCC, except as noted. They were grown under standard conditions in either DMEM, DMEM/F 12, or RPMI 1640 media plus 5-10% FBS. CDDO, over the dose range 10^−6 to 10^−10 M, was added to cultures at the time of seeding. Three or 4 days later, cells were treated with ^3H-thymidine for 2 h (12 h in the case of leukemia cells), and then incorporation was measured. “ER” means estrogen receptor.

[6] = test system: 21-MT-1 ER negative breast carcinoma cells; assay: as above; type: cell-based, human; settings: 3 or 4 days, 3H-thymidine 2 h
Description: as §1

[7] = test system: HL-60 myelocytic leukemia cells; assay: as above; type: cell-based, human; settings: 3 or 4 days, 3H-thymidine 12 h
Description: as §1

[8] = test system: ML-1 myeloblastic leukemia cells; assay: as above; type: cell-based, human; settings: 3 or 4 days, 3H-thymidine 12 h
Description: as §1

[9] = test system: U937 monocytic leukemia cells; assay: as above; type: cell-based, human; settings: 3 or 4 days, 3H-thymidine 12 h
Description: as §1

[10] = test system: COX-2 mRNA; assay: Northern blot for IL-1β-induced COX-2 mRNA in 18Co colon myofibroblasts; type: cell-based, human; settings: 18Co cells, IL-1β 30 pg/ml
Description: (§2) FIG. 14(A) illustrates Western blots; primary mouse macrophages; IFN-γ, 10 ng/ml; LPS, 2 ng/ml were added to cultures together with triterpenoids or dexamethasone (concentrations shown as […]); cells were harvested at 12 h. FIG. 14(B) illustrates Northern blots, RAW 264.7 macrophage-like cell line. IFN-γ, 10 ng/ml; LPS, 1 ng/ml; TNF-α, 10 ng/ml, were added to cultures together with CDDO or dexamethasone. RNA prepared after 12 h; GAPDH used as a loading control. FIG. 14(C) illustrates suppression of production of NO and PGEF in primary macrophages. For NO studies, cells were treated with IFN-γ, 10 ng/ml, together with CDDO (M), dexamethasone (O), TP-82 (□), or oleanolic acid (A). After 48 h, supernatants were analyzed for NO by the Griess reaction. For PGEF studies, cells were treated with IFN-γ, 5 ng/ml, and LPS, 5 ng/ml, together with the same set of inhibitors. After 48 h, PGE was measured in supernatants by immunoassay. Control values (no inhibition) for NO and PGE2 were 4.7 nmol/[…] and 2.2 ng/ml/2×10^5 cells, respectively. FIGS. (14D) and (14E) illustrate (human colon myofibroblasts) ^18Co cells grown in MEM/10% FBS; other methods are the same as reported above for macrophages. FIG. 14(D) illustrates Northern blots showing dose-response for suppression of COX-2 mRNA after induction with IL-1β (30 pg/ml). CDDO was added together with IL-1. […]

[11] = test system: PGE2 production in primary macrophages; assay: Suppression of PGE2 production in primary macrophages (FIG. 14C); type: cell-based, mouse; settings: levels as low as 10^−9 M; IFN-γ 5 ng/ml and LPS 5 ng/ml, 48 h
Description: as §2

`CC1(C)CC[C@]2(C(=O)O)CC[C@]3(C)[C@H](C(=O)C=C4[C@@]5(C)C=C(C#N)C(=O)C(C)(C)[C@@H]5CC[C@]43C)[C@@H]2C1` [Compound 6, 2-cyano-3,12-dioxoolean-1,9-dien-28-oic acid] was tested, and the “activity on LPS and IFN-γ induced NO production compared with dexamethasone (FIG. 7)” value [1] was “favorable to that of dexamethasone”, the “α-naphthyl esterase activity, combination effect” value ([2]; 10^−8 M CDDO with 2.5 ng/ml TGF-β1) was “additive effect” and the “induction of α-naphthyl esterase activity (monocytic differentiation)” value ([2]; 10^−8 M CDDO, within 48 h) was “induced the activity of this enzyme”. For the same molecule, the suppressing thymidine incorporation [3] was “highly active in the nanomolar range”, the IC50 [4] was 1 nM and the IC50 [5] was 50 nM. The IC50 [6] was 200 nM, the IC50 [7] was 100 nM and the IC50 [8] was 100 nM. For the same molecule, the IC50 [9] was 200 nM, the “induction of COX-2 mRNA” value [10] was “blocked induction” and the “inhibition of cumulative PGE2 production” value [11] was “Significant inhibition”.
